“Also recorded” adds a separate entry of the source.
Key:
[1] = tested on: Ehrlich ascites cells injected subcutaneously; assay: Subcutaneously transplanted Ehrlich cells in mice, export of metastatic cells (Exp 9); conditions: for Export (migration) of subcutaneously injected Ehrlich cells to peritoneum in treated animals / Solid tumours at subcutaneous injection sites: Exp 9; for Export (migration) of subcutaneously injected Ehrlich cells to peritoneum in treated animals: i.p. injections twice a week, untreated control developed ascites only
Protocol: This assay involves different numbers of Ehrlich carcinoma cells injected in six subcutaneous locations of mice that were treated by intraperitoneal injections of the compound tested, e.g. 4-OH-OPB (experiment number 9). […] When operating with different cell numbers in the different injection sites, the number of growing tumours indicated which cell number that is necessary for the development of tumours in treated or untreated animals.
Ehrlich ascites was stored in liquid nitrogen on serum with 10% DMSO. The ampoules were thawed in water of 37° C., diluted in serum, and pelleted by low speed centrifugation after the addition of 2 ml FBS, to remove DMSO.
The cells were diluted in volumes of 0.6 ml RPM (pH about 6.9) for each animal with no serum added. The 4-OH-OPB was injected intraperitonally twice a week, see Table 2.

[2] = tested on: spleen antibody producing cells against sheep red cells; assay: Jerne's test: haemolytic plaques of spleen cells after immunisation with sheep red cells (Exp 10); assay type: in vivo, mouse; conditions: Exp 10 animal 2, low: 2 μl 20 mM s.c. (est. max extracellular 4.6 μM)
[3] = tested on: S100T1 cell strain (polyoma virus transformed BHK21/c13); assay: Surface growth (degree of confluence) of S100T1 cells on plastic (Exp 5); assay type: cell-based, hamster; conditions: 2-4 days
From the text: (§1) The degree of confluence of polyoma virus transformed BHK21/c13 cells, the S100T1 cell strain, growing on plastic surface was observed 2-4 days after seeding 3000 or […] cells in appropriate wells of a 96 well tissue culture plate (Nunc).

[4] = tested on: spleen antibody producing cells against sheep red cells; assay: Jerne's test: haemolytic plaques of spleen cells after immunisation with sheep red cells (Exp 10); assay type: in vivo, mouse; conditions: for Change of number of plaques (antibody producing cells), average and high doses: 8.4 μl 20 mM and 3.5 μl 200 mM s.c.; for Condition of the animals on injection days (day 0 to day 62): all animals, s.c. 2 μl 20 mM to 3.5 μl 200 mM, day = column head; for Plaque no. in 10 mill. cells: control 4689
Protocol: The same principle could be tested in animals using the classical Jerne's test. Shortly described: Mice were immunised with sheep red cells. At the same time subcutaneous injection with a clone inhibitor, e.g. 4-OH-OPB, was performed. After 5 days the spleen was squeezed and spleen-cells counted and mixed with agar medium, sheep red cells and complement. After a short time plaques appeared and were counted and percent of total number of spleen cells was calculated. […] Therefore, it is probable that it is only the reaction against the new immunogen that is affected. […] Only cells of the same specificity seemed to be the <> of clonal inhibition even if lots of other B-lymphocytes are present, but with other specificities. The only condition necessary seemed to be that affected cells should be located more than a certain distance from each other.
In order to examine the degree of diminishing cloning in the immune system, Jerne's test in mice may be suitable (Experiment 10). Sheep erythrocytes are injected into mice. A few days later cells from the spleen of the animals are studied. In experiment 10 the smallest dose was about 3.8 μM if 4-OH-OPB was solved in the extracellular fluid of the mouse. […] But there are indications that normal cells might tolerate higher doses than malignant cells. Therefore, it is thought that effective tumour inhibiting doses of 4-OH-OPB probably will affect the clonability of antibody producing cells in the spleen under or shortly after primary immunisation moderately, about 2 logs.
The test animals were 4 mice, white Bom/NMRI (Table 5). The drug that was tested in this experiment is 4-OH-OPB (Table 1-4). It is inhibiting Ehrlich ascites when injected together with the cells in peritoneum in a concentration of 4 μM or higher and clonal growth of BHK21/c13 and its polyoma virus transformed offspring, S100T1, in cell culture.
A section was performed; they were weighed and a search for tumour masses was undertaken without finding any. The spleens were removed and about half of it crushed in 0.5 ml Eagles for getting extracted, free spleen cells that were seeded in soft agar on top of a solid agar layer in a Petri dish of 8.5 cm in diameter. The agar layer with spleen cells also contained sheep red cells and complement was added to obtain hemolysis.
Animals were killed by cervical dislocation on day 62 and spleens were immediately put on cold Eagle's medium for transportation. It lasted about 5 hours before the agar dishes were ready for incubation in 5% CO2 and 37° C. However, the dishes from mouse #1 and #2 were too fluid in the top layers and developed two many plaques to be counted. Therefore, the next day, the second half of the two spleens from mouse #1 and #2 that were kept cold in the same medium were crushed in the same way and new dishes were prepared with less number of cells.

BHK21/c13 cells = assay: Surface growth (degree of confluence) of BHK21/c13 cells on plastic (Exp 5); assay type: cell-based, hamster; conditions: for Concentration giving about full inhibition of growth on surface: 2-4 days
From the text: as §1

HSV1 = HSV1 replication and cytopathogenicity in RK13 cells (Exp 11a, 11b); assay type: cell-based, Herpes virus type 1; conditions: for Cytopathogenicity read after 24 hours: 4d = 100% degenerated; for Cell layer read after 24 hours: 4 g = unaffected and covering bottom of the well; for Coverage of the bottom read after 2 days / Cytopathogenicity read after 2 days: 11b, HSV 2 μl/well; for Coverage of the bottom read after 2 days: 1 g = 100% coverage of the bottom; for Cytopathogenicity read after 2 days: 1d is 100% degeneration
[5] = Exp 9 mouse 1: 10.5 μl 0.2 M i.p. (est. extracell. conc. 281)
[6] = Exp 9 mouse 1: 10.5 μl 0.2 M i.p. twice a week (est. extracell. conc. 281)
[7] = Exp 9 mouse 3: 9.6 μl 20 mM i.p. (27.9)
[8] = Exp 9 mouse 3: 9.6 μl 20 mM i.p. twice a week (27.9)
[9] = Exp 9 mouse 4: 1.37 μl 20 mM i.p. (2.8)
[10] = Exp 10 animal 2, low: 2 μl 20 mM s.c.
[11] = Exp 10 animal 3, average: 8.4 μl 20 mM s.c.
[12] = Exp 10 animal 4, high: 3.5 μl 200 mM s.c.
[13] = 11a, inoculate 1 μl/well, 30 μM
[14] = 11a, inoculate 4 μl/well, 30 μM
[15] = 11a, inoculate 16 μl/well, 30 μM

With `CCCCC1(O)C(=O)N(c2ccccc2)N(c2ccc(O)cc2)C1=O` (stereo not drawn) [4-OH-OPB, 4-butyl-4-hydroxy-2(p-hydroxyphenyl)-1-phenyl-3,5-pyrazolidinedione] the “Export (migration) of subcutaneously injected Ehrlich cells to peritoneum in treated animals” value [1] was “did not get ascites with tumour cells, only solid tumours; also recorded: no spread of tumour cells from these subcutaneous injection sites were found in peritoneum; also recorded: effective in stopping migration of tumour cells to peritoneum; also recorded: None of the treated ones got ascites”, the “Export (migration) of subcutaneously injected Ehrlich cells to peritoneum in treated animals” value ([1]; listed as 4-OH—OPB) was “Found inhibition on metastatic” and the “Solid tumours at subcutaneous injection sites” value ([1]; the two mice receiving smaller doses) was “only one tumour”. For the same molecule, the “Solid tumours at subcutaneous injection sites” value ([1]; very high dose mouse, sites with 6250 and 31250 cells) was “two tumours of the abdominal wall”, the “Toxic effects of the very high dose” value ([1]; Exp 9 mouse 1: 10.5 μl 0.2 M i.p.) was “caused adherences in peritoneum; also recorded: liver, spleen and possibly kidneys became affected by its toxicity; also recorded: died of haemorrhagic effusion in thorax” and the “Day 21, pathology” value [1, 5] was “Ascites”. For the same molecule, the “Pathology after 24 days” value [1, 5] was “Ascites or thoracic fluid did not contain Ehrlich cells”, the “Pathology after 24 days” value ([1]; Exp 9 mouse 1: 10.5 μl 0.2 M i.p. (est. extracell. conc. 281), listed as 4-OH—OPB) was “number developed solid tumours; also recorded: Toxic ascites and thoracic” and the “Clinical status, day 14” value [1, 6] was “No Ehrlich”. The “Day 3-7, clinical status” value [1, 6] was “no tumour”, the “Weight, day 18” value ([1]; Exp 9 mouse 1: 10.5 μl 0.2 M i.p. twice a week, initial weight 26.2) was 37.4 g and the “Animal weight after 24 days” value ([1]; Exp 9 mouse 1: 10.5 μl 0.2 M i.p., initial weight 26.2) was 40.2 g. For the same molecule, the “Day 21, pathology” value [1, 7] was “Lens sized”, the “Pathology after 24 days” value [1, 7] was “Ascites or organ tumours were not found” and the “Pathology after 24 days” value ([1]; Exp 9 mouse 3: 9.6 μl 20 mM i.p. (27.9), listed as 4-OH—OPB) was “Pea sized tumour in left”. The “Clinical status, day 14” value [1, 8] was “No tumour”, the “Clinical status, day 18” value [1, 8] was “No tumour” and the “Animal weight after 24 days” value ([1]; Exp 9 mouse 3: 9.6 μl 20 mM i.p., initial weight 24.1) was 25 g. For the same molecule, the “Day 21, pathology” value [1, 9] was “Small tumour”, the “Pathology after 24 days” value [1, 9] was “slightly observable tumour in the abdominal wall” and the “Pathology after 24 days” value ([1]; Exp 9 mouse 4: 1.37 μl 20 mM i.p. (2.8), listed as 4-OH—OPB) was “days ago, now lens sized”. The “Animal weight after 24 days” value ([1]; Exp 9 mouse 4: 1.37 μl 20 mM i.p., initial weight 34.2) was 33.5 g. Tumour as discovered 3, the “Estimated concentration in extracellular fluid at which serious toxicity occurs” value ([1]; extracellular fluid calculated as 2/7 of the animal weight) was 280 µM and the Spleen weight [2] was 148 mg. The “Concentration giving about full inhibition of growth on surface” value ([3]; 3000 S100T1 cells/well) was 1 µM, the “Concentration giving about full inhibition of growth on surface” value ([3]; 10000 S100T1 cells/well) was 3 µM and the “Change of number of plaques, smallest dose” value ([4]; Exp 10, 2 μl 20 mM s.c.) was “did not significantly change the number of plaques”. The “Change of number of plaques (antibody producing cells), average and high doses” value ([4]; Exp 10) was “did reduce the number significantly”, the “Change of number of plaques (antibody producing cells), average and high doses” value ([4]; Exp 10, listed as 4-OH—OPB) was “OPB significantly reduced the number of anti-” and the “Condition of the animals on injection days (day 0 to day 62)” value ([4]; Exp 10) was “all animals were clinically well”. The “Condition of the animals on injection days (day 0 to day 62)” value ([4]; Exp 10, listed as 4-OH—OPB) was “all well at end”, the “1. number of plaques” value [4, 10] was “many” and the “2. number of plaques” value ([4]; Exp 10 animal 2, low: 2 μl 20 mM s.c., 32.6 million cells on dish) was 10218. The “Plaque no. in 10 mill. cells” value [4, 10] was 3134, the “1. number of plaques” value [4, 11] was 42 and the Spleen weight ([4]; Exp 10 animal 3, average: 8.4 μl 20 mM s.c. (est. max extracellular 19.6 μM)) was 150 mg. The “Plaque no. in 10 mill. cells” value [4, 11] was 8.4, the “1. number of plaques” value [4, 12] was 0-2? and the Spleen weight ([4]; Exp 10 animal 4, high: 3.5 μl 200 mM s.c. (est. max extracellular 67.7 μM)) was 136 mg. The “Plaque no. in 10 mill. cells” value [4, 12] was “<=0.23”, the “Mouse weight after 2 months” value ([4]; Exp 10 mouse 2 (11.3 μg 4-OH-OPB/30 g)) was 37.6 gram and the “Mouse weight after 2 months” value ([4]; Exp 10 mouse 3 (51.5 μg 4-OH-OPB/30 g)) was 33.3 gram. For the same molecule, the “Mouse weight after 2 months” value ([4]; Exp 10 mouse 4 (210.2 μg 4-OH-OPB/30 g)) was 34 gram, the “Concentration needed for total inhibition of surface growth, BHK21/c13 compared to S100T1” value (BHK21/c13 cells) was “about 3 times” and the “Growth on surface with 100 and 300 nM after 4 days” value (BHK21/c13 cells; 3000 BHK21/c13 cells/well) was “growth inhibition compared to the control”. For the same molecule, the “Concentration giving about full inhibition of growth on surface” value (BHK21/c13 cells; 3000 BHK21/c13 cells/well) was 3 µM, the “Concentration giving about full inhibition of growth on surface” value (BHK21/c13 cells; 10000 BHK21/c13 cells/well with 0.1 i.u./ml insulin) was 10 µM and the “HSV titration of treated wells, read after 4 days” value (HSV1; 11a, 1 μl HSV, 0.3 μM, dilution 1/1024) was “((+)?”. The “Cytopathogenicity read after 24 hours” value (HSV1; 11a, inoculate 1 μl/well, 0.1 μM) was 1.7 days, the “Cytopathogenicity read after 24 hours” value (HSV1; 11a, inoculate 1 μl/well, 0.3 μM) was 1.7 days and the “Cytopathogenicity read after 24 hours” value (HSV1; 11a, inoculate 1 μl/well, 1 μM) was 1.7 days. The “Cytopathogenicity read after 24 hours” value (HSV1; 11a, inoculate 1 μl/well, 3 μM) was 1.7 days, the “Cytopathogenicity read after 24 hours” value (HSV1; 11a, inoculate 1 μl/well, 10 μM) was 4 days and the “Cell layer read after 24 hours” value (HSV1; [13]) was 3 to 4 g. The “Cytopathogenicity read after 24 hours” value (HSV1; [13]) was 0 days, the “Cytopathogenicity read after 24 hours” value (HSV1; 11a, inoculate 4 μl/well, 0.1 μM) was 2.6 days and the “Cytopathogenicity read after 24 hours” value (HSV1; 11a, inoculate 4 μl/well, 0.3 μM) was 2.6 days. For the same molecule, the “Cytopathogenicity read after 24 hours” value (HSV1; 11a, inoculate 4 μl/well, 1 μM) was 2.6 days, the “Cytopathogenicity read after 24 hours” value (HSV1; 11a, inoculate 4 μl/well, 3 μM) was 2.6 days and the “Cytopathogenicity read after 24 hours” value (HSV1; 11a, inoculate 4 μl/well, 10 μM) was 4 days. The “Cell layer read after 24 hours” value (HSV1; [14]) was 3 to 4 g, the “Cytopathogenicity read after 24 hours” value (HSV1; [14]) was 0 days and the “Cytopathogenicity read after 24 hours” value (HSV1; 11a, inoculate 16 μl/well, 0.1 μM) was 3.4 days. For the same molecule, the “Cytopathogenicity read after 24 hours” value (HSV1; 11a, inoculate 16 μl/well, 0.3 μM) was 3 to 4 days, the “Cytopathogenicity read after 24 hours” value (HSV1; 11a, inoculate 16 μl/well, 1 μM) was 3.4 days and the “Cytopathogenicity read after 24 hours” value (HSV1; 11a, inoculate 16 μl/well, 3 μM) was 4 days. The “Cytopathogenicity read after 24 hours” value (HSV1; 11a, inoculate 16 μl/well, 10 μM) was 4 days, the “Cell layer read after 24 hours” value (HSV1; [15]) was 3 to 4 g and the “Cytopathogenicity read after 24 hours” value (HSV1; [15]) was 0.5 days. For the same molecule, the “Coverage of the bottom read after 2 days” value (HSV1; 0.3 μM) was 1 g, the “Coverage of the bottom read after 2 days” value (HSV1; 1 μM) was 1 g and the “Cytopathogenicity read after 2 days” value (HSV1; 1 μM) was 0.28 days. The “Coverage of the bottom read after 2 days” value (HSV1; 3 μM) was 1 g, the “Cytopathogenicity read after 2 days” value (HSV1; 3 μM) was 0.28 days and the “Cytopathogenicity read after 2 days” value (HSV1; 10 μM) was 1 days. For the same molecule, the “Coverage of the bottom read after 2 days” value (HSV1; 30 μM) was 1 g, the “Concentration that inhibited HSV / necessary for the cure of the infection in cell culture” value (HSV1; Exp 11a, inoculate not removed before titration) was 10 µM and the “Concentration that inhibited satisfactorily” value (HSV1; Exp 11b) was 1000 nM. For the same molecule, the Total titre reduction (HSV1; Exp 11b) was “about 3.5 log”, the “Dose giving maximal inhibition of HSV1 titre” value (HSV1; Exp 11b, titration read after four days) was at least 1 µM and the “Inhibition in Exp 11b compared with Exp 11a” value (HSV1; medium changed the day after infection) was 10 times.

From US20060121449A1, “Method for selection of compounds which inhibit clonal cell growth and use thereof” (priority 2002, published 2006)
